system: human C-Myc transcription in MV-4-11 cells; assay: Transcription of human C-Myc in human leukemic MV-4-11 cells (QuantiGene 2.0); type: cell-based; conditions: Homo sapiens, MV4-11, 4 h, inhibition of C-Myc mRNA, 4 hours treatment, read-out: IC50 MV-4-11 Cell
Protocol: The effect of compounds on transcription of human C-Myc gene is monitored in human B-myelomonocytic leukemia cell line MV-4-11 (from American Type Culture Collection (ATCC), Manassas, Va., USA) using QuantiGene 2.0 assay kit (Affymetrix, Santa Clara, Calif., USA).
Typically, 8,000 MV-4-11 cells are plated in sterile 96-well plates (Costar #3598 from Fisher Scientific Canada, Ottawa, Ontario, Canada) in Iscove's medium supplemented with 10% fetal bovine serum, glutamine (2 mM), and penicillin (100 I.U.) and streptomycin (100 μg/mL) (all from Wisent Inc., St. Bruno, Quebec, Canada). Compounds are dissolved in DMSO at 30 mM. A series of 1:3 dilutions are first made in DMSO, and further 1:100 dilutions are made in serum-containing cell culture media. The final concentration of DMSO is 0.1% in cell culture media. After cells are treated with various concentrations of test compound for 4 hours, cells are lysed using Quantigene 2.0 sample processing kit (# QS0100). C-Myc mRNA is detected using a QuantiGene 2.0 assay kit (# QS0009) with gene-specific probe to human C-Myc (# SA-50182) following the manufacturer's recommendations. Luminescene signals are read on Flexstation II microplate reader (Molecular Devices, Sunnyvale, Calif., USA).

`CCO[C@@H](C)Cn1c(C2CCOCC2)nc2ccc(-c3cc(C)c(=O)n(C)c3)cc21` [Compound 40, (S)-5-(1-(2-ethoxypropyl)-2-(tetrahydro-2H-pyran-4-yl)-1H-benzo[d]imidazol-6-yl)-1,3-dimethylpyridin-2(1H)-one] and `Cc1cc(-c2ccc3nc(C4CCOCC4)n(CCOC(C)C)c3c2)cn(C)c1=O` [Compound 49, 5-(1-(2-isopropoxyethyl)-2-(tetrahydro-2H-pyran-4-yl)-1H-benzo[d]imidazole-6-yl)-1,3-dimethylpyridin-2(1H)-one] are within 1.5-fold of each other in IC50: 27 nM for the first, 22 nM for the second.

`Cc1cc(-c2ccc3nc(CC4CCOCC4)n(CCOC(F)(F)F)c3c2)cn(C)c1=O` [Compound 43, 1,3-dimethyl-5-(2-((tetrahydro-2H-pyran-4-yl)methyl)-1-(2-(trifluoromethoxy)ethyl)-1H-benzo[d]imidazol-6-yl)pyridin-2(1H)-one] and `Cc1cc(-c2ccc3nc(C4CCOCC4)n(CCOCC(F)(F)F)c3c2)cn(C)c1=O` [Compound 41, 1,3-dimethyl-5-(2-(tetrahydro-2H-pyran-4-yl)-1-(2-(2,2,2-trifluoroethoxy)ethyl)-1H-benzo[d]imidazol-6-yl)pyridin-2(1H)-one] are within 1.5-fold of each other in IC50: 27 nM for the first, 23 nM for the second.

Going from `CCOCCn1c(C2CCC(F)(F)CC2)nc2ccc(-c3cc(C)c(=O)n(C)c3)cc21` [Compound 61, 5-(2-(4,4-difluorocyclohexyl)-1-(2-ethoxyethyl)-1H-benzo[d]imidazol-6-yl)-1,3-dimethylpyridin-2(1H)-one] to `CO[C@H](C)Cn1c(C2CCC(F)(F)CC2)nc2ccc(-c3cc(C)c(=O)n(C)c3)cc21` [Compound 58, (R)-5-(2-(4,4-difluorocyclohexyl)-1-(2-methoxypropyl)-1H-benzo[d]imidazol-6-yl)-1,3-dimethylpyridin-2(1H)-one], the IC50 rises from 84 nM to 160 nM (1.9-fold). The first is the more potent here.

`COC[C@@H](C)n1c(C(F)(F)F)nc2ccc(-c3cc(C)c(=O)n(C)c3)cc21` [Compound 26, 5-[3-[(1R)-2-methoxy-1-methyl-ethyl]-2-(trifluoromethyl)benzimidazol-5-yl]-1,3-dimethylpyridin-2-one] and `COC[C@H](C)n1c(C2CCC(F)(F)CC2)nc2ccc(-c3cc(C)c(=O)n(C)c3)cc21` [Compound 56, (S)-5-(2-(4,4-difluorocyclohexyl)-1-(1-methoxypropan-2-yl)-1H-benzo[d]imidazol-6-yl)-1,3-dimethylpyridin-2(1H)-one] are within 1.5-fold of each other in IC50: 230 nM for the first, 220 nM for the second.

Compared with `COC[C@@H](C)n1c(CC2CCOCC2)nc2ccc(-c3cc(C)c(=O)n(C)c3)cc21` [Compound 50, (R)-5-(1-(1-methoxypropan-2-yl)-2-((tetrahydro-2H-pyran-4-yl)methyl)-1H-benzo[d]imidazol-6-yl)-1,3-dimethylpyridin-2(1H)-one], `Cc1cc(-c2ccc3nc(C4CC(F)(F)C4)n(CCOC(F)(F)F)c3c2)cn(C)c1=O` [Compound 27, 5-[2-(3,3-difluorocyclobutyl)-3-[2-(trifluoromethoxy)ethyl]benzimidazol-5-yl]-1,3-dimethylpyridin-2-one] is 1.7-fold lower in IC50: 160 nM for the first, 92 nM for the second.

same assay, conditions: inhibition of C-Myc mRNA, 4 hours treatment, read-out: IC50 MV-4-11 Cell

Compared with `COC(C)Cn1c(C)nc2ccc(-c3cc(C)c(=O)n(C)c3)cc21` (centres unmarked) [Compound 21b, 5-[3-(2-methoxypropyl)-2-methylbenzimidazol-5-yl]-1,3-dimethylpyridin-2-one], “5-[2-(3-methoxycyclobutyl)-1-(2-(2,2,2-trifluoroethoxy)ethyl)-1H-benzo[d]imidazol-6-yl]-1,3-dimethylpyridin-2(1H)-one [Compound 63]” is 35-fold lower in IC50: 590 nM for the first, 17 nM for the second. The second is the more potent here.

`Cc1cc(-c2ccc3nc(C4CCOC4)n(CCOC(F)(F)F)c3c2)cn(C)c1=O` (single isomer, unassigned) [Compound 29a, 1,3-dimethyl-5-[2-tetrahydrofuran-3-yl-3-[2-(trifluoromethoxy)ethyl]benzimidazol-5-yl]pyridin-2-one] and `COC(C)Cn1c(C2CC2)nc2ccc(-c3cc(C)c(=O)n(C)c3)cc21` (single isomer, unassigned) [Compound 23a, 5-[2-cyclopropyl-3-(2-methoxypropyl)benzimidazol-5-yl]-1,3-dimethylpyridin-2-one] are within 1.5-fold of each other in IC50: 220 nM for the first, 250 nM for the second.

From patent US10703740B2, “Substituted benzimidazoles, their preparation and their use as pharmaceuticals” (NEOMED Institute, priority 2015, dated 2020)
